The test system of the assay is H1N1 flu. Briefly: Clinical Trial 6, influenza patient (H1N1 flu). It counts as in vivo. As to conditions: person; Tamiflu taken for a week. The text has this:
They were a patient taking Tamiflu against symptoms of H1N1 flu and taking it for a week.

With `CCOC(=O)C1=C[C@@H](OC(CC)CC)[C@H](NC(C)=O)[C@@H](N)C1` [Tamiflu], the “improvement of symptoms of H1N1 flu” value is recorded as “minimal”.

The record behind these values is patent US10959450B2, “Food composition for relieving symptoms of allergic and autoimmune diseases” (priority 2017, dated 2021).
